Patent US8293770B2, “Pyrrolidine derivatives as NK-3 receptor antagonists” (Hoffmann-La Roche Inc., priority 2008, dated 2012)

Columns and labels:
[1] = molecular target: T1, recombinant human NK3 receptor (Homo sapiens, UniProt P29371); test: [3H]SR142801 competition binding assay; conditions: hNK3 receptor binding, [3H]SR142801, membranes from HEK293 cells transiently expressing recombinant human NK3 receptor
T1 construct: expressed in transfected cells; host or cells: HEK293 cells (transient expression), membranes
T1 sequence (P29371 1-465): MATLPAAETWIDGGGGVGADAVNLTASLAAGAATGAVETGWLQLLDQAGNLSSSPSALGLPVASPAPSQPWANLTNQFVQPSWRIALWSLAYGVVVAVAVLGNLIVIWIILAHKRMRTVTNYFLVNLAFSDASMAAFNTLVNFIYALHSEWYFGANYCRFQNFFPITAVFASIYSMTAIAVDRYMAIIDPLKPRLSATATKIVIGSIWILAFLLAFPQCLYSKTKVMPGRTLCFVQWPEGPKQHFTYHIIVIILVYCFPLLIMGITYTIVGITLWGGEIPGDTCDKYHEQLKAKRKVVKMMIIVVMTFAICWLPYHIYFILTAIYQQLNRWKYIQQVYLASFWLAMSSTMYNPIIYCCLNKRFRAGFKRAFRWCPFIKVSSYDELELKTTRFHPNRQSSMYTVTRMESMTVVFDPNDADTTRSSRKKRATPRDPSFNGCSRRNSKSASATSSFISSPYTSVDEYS
Protocol: [^3H]SR142801 competition binding assay
hNK3 receptor binding experiment were performed using [^3H]SR142801 (Catalog No. TRK1035, specific activity: 74.0 Ci/mmol, Amersham, GE Healthcare UK limited, Buckinghamshire, UK) and membrane isolated from HEK293 cells transiently expressing recombinant human NK3 receptor. After thawing, the membrane homogenates were centrifuged at 48,000×g for 10 min at 4° C., the pellets were resuspended in the 50 mM Tris-HCl, 4 mM MnCl2, 1 μM phosphoramidon, 0.1% BSA binding buffer at pH 7.4 to a final assay concentration of 5 μg protein/well. […] At the end of the incubation, membranes were filtered onto unitfilter (96-well white microplate with bonded GF/C filter preincubated 1 h in 0.3% PEI+0.3% BSA, Packard BioScience, Meriden, Conn.) with a Filtermate 196 harvester (Packard BioScience) and washed 4 times with ice-cold 50 mM Tris-HCl, pH 7.4 buffer. Nonspecific binding was measured in the presence of 10 μM SB222200 for both radioligands. The radioactivity on the filter was counted (5 min) on a Packard Top-count microplate scintillation counter with quenching correction after addition of 45 μl of microscint 40 (Canberra Packard S. A., Zürich, Switzerland) and shaking for 1 h. Inhibition curves were fitted according to the Hill equation: y=100/(1+(x/IC50)^nH), where nH=slope factor using Excel-fit 4 software (Microsoft). IC50 values were derived from the inhibition curve and the affinity constant (Ki) values were calculated using the Cheng-Prussoff equation Ki=IC50/(1+[L]/KD) where [L] is the concentration of radioligand and KD is its dissociation constant at the receptor, derived from the saturation isotherm. All experiments were performed in duplicate and the mean±standard error (SEM) of the individual Ki values was calculated.

[2] = phase II trial, cited from earlier work

CN(Cc1ccc(C(F)(F)F)c(F)c1)[C@H]1CN(C(=O)c2ccc(N3CCCS3(=O)=O)cc2)C[C@@H]1c1ccc(Cl)c(Cl)c1 (racemic) [Example 42, {(3SR,4RS)-3-(3,4-Dichloro-phenyl)-4-[(3-fluoro-4-trifluoromethyl-benzyl)-methyl-amino]-pyrrolidin-1-yl}-[4-(1,1-dioxo-1-6-isothiazolidin-2-yl)-phenyl]-methanone]
Ki [1]: 33.5 nM

CN(Cc1ccc(C(F)(F)F)c(F)c1)[C@H]1CN(C(=O)c2ccc(-c3ccccn3)cc2)C[C@@H]1c1ccc(Cl)c(Cl)c1 (racemic) [Example 43, {(3SR,4RS)-3-(3,4-Dichloro-phenyl)-4-[(3-fluoro-4-trifluoromethyl-benzyl)-methyl-amino]-pyrrolidin-1-yl}-(4-pyridin-2-yl-phenyl)-methanone]
Ki [1]: 5.1 nM

CN(Cc1ccc(C(F)(F)F)c(F)c1)[C@H]1CN(C(=O)c2ccc(-c3cccnc3)cc2)C[C@@H]1c1ccc(Cl)c(Cl)c1 (racemic) [Example 44, {(3SR,4RS)-3-(3,4-Dichloro-phenyl)-4-[(3-fluoro-4-trifluoromethyl-benzyl)-methyl-amino]-pyrrolidin-1-yl}-(4-pyridin-3-yl-phenyl)-methanone]
Ki [1]: 5.6 nM

CN(Cc1ccc(C(F)(F)F)c(F)c1)[C@H]1CN(C(=O)c2ccc(-c3ccncc3)cc2)C[C@@H]1c1ccc(Cl)c(Cl)c1 (racemic) [Example 45, {(3SR,4RS)-3-(3,4-Dichloro-phenyl)-4-[(3-fluoro-4-trifluoromethyl-benzyl)-methyl-amino]-pyrrolidin-1-yl}-(4-pyridin-4-yl-phenyl)-methanone]
Ki [1]: 2.5 nM

CN(Cc1ccc(C(F)(F)F)c(F)c1)[C@H]1CN(C(=O)c2ccc(-c3nnco3)cc2)C[C@@H]1c1ccc(Cl)c(Cl)c1 (racemic) [Example 47, {(3SR,4RS)-3-(3,4-Dichloro-phenyl)-4-[(3-fluoro-4-trifluoromethyl-benzyl)-methyl-amino]-pyrrolidin-1-yl}-(4-[1,3,4]oxadiazol-2-yl-phenyl)-methanone]
Ki [1]: 2.3 nM

CN(Cc1ccc(C(F)(F)F)c(F)c1)[C@H]1CN(C(=O)c2ccc(O)nc2)C[C@@H]1c1ccc(Cl)c(Cl)c1 (racemic) [Example 48, {(3SR,4RS)-3-(3,4-Dichloro-phenyl)-4-[(3-fluoro-4-trifluoromethyl-benzyl)-methyl-amino]-pyrrolidin-1-yl}-(6-hydroxy-pyridin-3-yl)-methanone]
Ki [1]: 47.8 nM

CN(Cc1ccc(C(F)(F)F)c(F)c1)[C@H]1CN(C(=O)c2ccc3cnccc3n2)C[C@@H]1c1ccc(Cl)c(Cl)c1 (racemic) [Example 51, {(3SR,4RS)-3-(3,4-Dichloro-phenyl)-4-[(3-fluoro-4-trifluoromethyl-benzyl)-methyl-amino]-pyrrolidin-1-yl}-[1,6]naphthyridin-2-yl-methanone]
Ki [1]: 14.6 nM

COc1ncc(C(=O)N2C[C@H](c3ccc(Cl)c(Cl)c3)[C@@H](N(C)Cc3ccc(C(F)(F)F)c(F)c3)C2)cn1 (racemic) [Example 57, {(3SR,4RS)-3-(3,4-Dichloro-phenyl)-4-[(3-fluoro-4-trifluoromethyl-benzyl)-methyl-amino]-pyrrolidin-1-yl}-(2-methoxy-pyrimidin-5-yl)-methanone]
Ki [1]: 22.3 nM

CN(Cc1ccc(C(F)(F)F)c(F)c1)[C@H]1CN(C(=O)c2ccc3nn[nH]c3c2)C[C@@H]1c1ccc(Cl)c(Cl)c1 (racemic) [Example 59, (3H-Benzotriazol-5-yl)-{(3SR,4RS)-3-(3,4-dichloro-phenyl)-4-[(3-fluoro-4-trifluoromethyl-benzyl)-methyl-amino]-pyrrolidin-1-yl}-methanone]
Ki [1]: 31.8 nM

CN(Cc1ccc(C(F)(F)F)c(F)c1)[C@H]1CN(C(=O)c2ccc3nc[nH]c3c2)C[C@@H]1c1ccc(Cl)c(Cl)c1 (racemic) [Example 60, (3H-Benzoimidazol-5-yl)-{(3SR,4RS)-3-(3,4-dichloro-phenyl)-4-[(3-fluoro-4-trifluoromethyl-benzyl)-methyl-amino]-pyrrolidin-1-yl}-methanone]
Ki [1]: 17.3 nM

CC(=O)Nc1ccc(C(=O)N2C[C@H](c3ccc(Cl)c(Cl)c3)[C@@H](N(C)Cc3ccc(C(F)(F)F)c(F)c3)C2)cc1 (racemic) [Example 61, N-(4-{(3SR,4RS)-3-(3,4-Dichloro-phenyl)-4-[(3-fluoro-4-trifluoromethyl-benzyl)-methyl-amino]-pyrrolidine-1-carbonyl}-phenyl)-acetamide]
Ki [1]: 37.3 nM

CN(Cc1ccc(C(F)(F)F)c(F)c1)[C@H]1CN(C(=O)c2ccc(N3CCN(C(=O)OC(C)(C)C)CC3)nc2)C[C@@H]1c1ccc(Cl)c(Cl)c1 (racemic) [Example 63, 4-(5-{(3SR,4RS)-3-(3,4-Dichloro-phenyl)-4-[(3-fluoro-4-trifluoromethyl-benzyl)-methyl-amino]-pyrrolidine-1-carbonyl}-pyridin-2-yl)-piperazine-1-carboxylic acid tert-butyl ester]
Ki [1]: 24.7 nM

CN(Cc1ccc(C(F)(F)F)c(F)c1)[C@H]1CN(C(=O)c2ccc(N3CCS(=O)(=O)CC3)nc2)C[C@@H]1c1ccc(Cl)c(Cl)c1 (racemic) [Example 64, {(3SR,4RS)-3-(3,4-Dichloro-phenyl)-4-[(3-fluoro-4-trifluoromethyl-benzyl)-methyl-amino]-pyrrolidin-1-yl}-[6-(1,1-dioxo-1-6-thiomorpholin-4-yl)-pyridin-3-yl]-methanone]
Ki [1]: 2 nM

CN(Cc1ccc(C(F)(F)F)c(F)c1)[C@H]1CN(C(=O)c2ccc(C#N)cc2)C[C@@H]1c1ccc(Cl)c(F)c1 (racemic) [Example 66, 4-{(3SR,4RS)-3-(4-Chloro-3-fluoro-phenyl)-4-[(3-fluoro-4-trifluoromethyl-benzyl)-methyl-amino]-pyrrolidine-1-carbonyl}-benzonitrile]
Ki [1]: 12.6 nM

CN(Cc1ccc(C(F)(F)F)c(F)c1)[C@H]1CN(C(=O)c2ccc(-c3cnco3)cc2)C[C@@H]1c1ccc(Cl)c(Cl)c1 (racemic) [Example 67, {(3SR,4RS)-3-(3,4-Dichloro-phenyl)-4-[(3-fluoro-4-trifluoromethyl-benzyl)-methyl-amino]-pyrrolidin-1-yl}-(4-oxazol-5-yl-phenyl)-methanone]
Ki [1]: 4.5 nM

CN(Cc1ccc(C(F)(F)F)cc1)[C@H]1CN(C(=O)c2ccc(C#N)cc2)C[C@@H]1c1ccc(Cl)c(Cl)c1 (racemic) [Example 68, 4-{(3SR,4RS)-3-(3,4-Dichloro-phenyl)-4-[methyl-(4-trifluoromethyl-benzyl)-amino]-pyrrolidine-1-carbonyl}-benzonitrile]
Ki [1]: 14.6 nM

CC(=O)N(C)C1(c2ccccc2)CCN(CCC[C@]2(c3ccc(Cl)c(Cl)c3)CCCN(C(=O)c3ccccc3)C2)CC1 [SR 142,801, Osanetant]
activity on positive symptoms of schizophrenia ([2]; altered behavior, delusion, hallucinations, extreme emotions, excited motor activity, incoherent speech): active | activity in the treatment of negative symptoms ([2]; depression, anhedonia, social isolation or memory and attention deficits): inactive
